Results from paper PMC4421842 (Nature Communications, 2015).
In brackets after ≈: the same amount, converted by molar mass. Several values for one entry are separate records, joined by “and”; a condition that tells them apart may be missing. Identical values can stand only once. Entries after “also recorded” stand apart in the source; their conditions may differ. Like-named read-outs stand apart in the source and are kept apart here.

Assays:
[1] = test system: E. faecalis; assay: microbe, parasite or virus in culture; format: cell-based; settings: E. faecalis
[2] = test system: S. aureus (ATCC 29213); assay: Resistant mutant generation (resistance frequency); format: cell-based; settings: development of DNM resistance in high-level CIP-resistant strains
[3] = test system: A. baumannii; assay: MIC, microdilution broth, A. baumannii; format: cell-based
Source text: (§1) MRSA and P. aeruginosa isolates were from Cubist Pharmaceuticals (Lexington, MA). VRE isolates were from a previously published collection. E. coli strains were obtained either from ATCC or Professor Cari Vanderpool (UIUC). A. baumannii isolates were obtained from Dr John Quale[51].
(§2) Mueller Hinton (MH) broth was used.

[4] = target: T1, WT E. coli DNA gyrase (Escherichia coli, UniProt P0AES4+P0AES6); format: biochemical; settings: DNA cleavage assay
T1 construct: His tag (pTRCHisA vector; purified on Ni-NTA); made in house; host or cells: E. coli One Shot BL21 Star (DE3)

[5] = test system: MRSA clinical isolates; assay: microbe, parasite or virus in culture; format: cell-based, S. aureus; settings: for MIC: Staphylococcus aureus, MRSA
Procedure: as §1
Susceptibility testing was performed in triplicate, using the microdilution broth method as outlined by the Clinical and Laboratory Standards Institute[52]. Mueller Hinton (MH) broth was used.

[6] = test system: VRE clinical isolates; assay: MIC, VRE clinical isolates panel (summary by GyrA mutation); format: cell-based, Enterococcus; settings: for MIC: Enterococcus, VRE
Source text: as §1, §2

[7] = target: T2, S83R E. coli DNA gyrase (Escherichia coli, UniProt P0AES4+P0AES6, S83R); format: biochemical; settings: DNA cleavage assay
T2 construct: His tag (pTRCHisA vector; purified on Ni-NTA); made in house; host or cells: E. coli One Shot BL21 Star (DE3)

[8] = test system: WT S. aureus (ATCC 29213, WT); assay: microbe, parasite or virus in culture; format: cell-based; settings: WT GyrA and WT ParC, three independent replicates
[9] = physchem; settings: pH 7.4
Procedure: Three independent replicates of each compound were performed.

[10] = test system: E. coli; assay: microbe, parasite or virus in culture; format: cell-based; settings: Escherichia coli, ATCC25922, E. coli ATCC 25922; gyrA none, parC none
Source text: as §1, §2

[11] = test system: P. aeruginosa; assay: MIC, microdilution broth, P. aeruginosa; format: cell-based
Source text: as §1, §2

[12] = test system: E. faecium; assay: microbe, parasite or virus in culture; format: cell-based; settings: Enterococcus faecium, E. faecium
[13] = Pharmacokinetic assessment; format: in vivo, C57BL/6 mice; settings: for Cmax: female, C57BL/6, mouse
Procedure: (§3) The animal studies (PK, in-vivo toxicity and in-vivo efficacy) were carried out in strict accordance with the recommendations in the Guide for the Care and Use of Laboratory Animals of the National Institutes of Health. […] In these studies, 10- to 12-week-old female C57BL/6 mice purchased from Charles River were used. DNM, DNM-2 and DNM-3 were formulated as slurries at 8.3 mg ml^−1 in 25% Cremophor RH40/water (v/v). Before beginning the pharmacokinetic assessment, mice were first tested for their ability to tolerate the DNM, DNM-2 and DNM-3 at 50 mg kg^−1 (p.o.). […] At specified time points, mice were killed and blood was collected, centrifuged and the serum was frozen at −80 °C until analysis. The proteins in a 50-μl aliquot of serum were precipitated by the addition of 50 μl of acetonitrile and the sample was centrifuged to remove the proteins. Serum concentrations of DNM, DNM-2 and DNM-3 were determined by HPLC. PK parameters were determined using GraphPad Prism Version 5.00 for Windows.

[14] = test system: Ent. Spp.; assay: MIC, microdilution broth, Ent. Spp. VRE clinical isolate; format: cell-based; settings: Enterococcus, C28036, gyrA Ser83Ile, parC Ser80Ile
Source text: as §1, §2

[15] = Tolerability in mice (maximal tolerated dose); format: in vivo
Procedure: as §3

[16] = test system: resistant strains of ATCC 29213; assay: microbe, parasite or virus in culture; format: cell-based, S. aureus; settings: Staphylococcus aureus

**Q.** For Cc1cc(=O)n(C)c2c3c4c(cc12)c(C)cc(=O)n4CO3 [DNM, deoxynybomycin], which MIC ([1]; ATCC 29212, gyrA WT, parC WT) is on record?
**A.** > 1 µg/mL

**Q.** What about the MIC ([1]; Enterococcus faecalis, ATCC19433, ATCC 19433, gyrA WT, parC WT) of the same molecule?
**A.** > 1 µg/mL

**Q.** What about the MIC ([1]; Enterococcus faecalis, ATCC29212, ATCC 29212, gyrA WT, parC WT) of the same molecule?
**A.** > 1 µg/mL

**Q.** What about the MIC ([1]; Enterococcus faecalis, S206, gyrA Ser83 Arg, parC Ser80Ile) of the same molecule?
**A.** 1 µg/mL (≈ 3.54 µM)

**Q.** What about the resistance frequencies [2] of the same molecule?
**A.** 1 × 10^−10 to 7 × 10^−10

**Q.** And the “activity against wild-type (WT) or FQR Acinetobacter baumannii” value [3]?
**A.** no detectable activity

**Q.** What about the MIC ([3]; A. baumannii KB304, gyrA S83L) of the same molecule?
**A.** > 4 µg/mL

**Q.** And the MIC ([3]; Acinetobacter baumannii)?
**A.** > 4 µg/mL

**Q.** What about the MIC ([3]; Acinetobacter baumannii, ATCC19606, A. baumannii ATCC 19606, read-out: MIC) of the same molecule?
**A.** > 4 µg/mL

**Q.** What about the “inhibition of WT DNA gyrase (increase in L or OC DNA)” value [4] of the same molecule?
**A.** poor inhibitors of WT DNA gyrase

**Q.** What about the MIC ([5]; strain SAU.1118, read-out: MIC) of the same molecule?
**A.** 1 µg/mL (≈ 3.54 µM)

**Q.** What about the MIC ([5]; strain SAU.2996, read-out: MIC) of the same molecule?
**A.** 0.25 µg/mL (≈ 0.886 µM)

**Q.** What about the MIC ([5]; strain SAU.3017, read-out: MIC) of the same molecule?
**A.** 1 µg/mL (≈ 3.54 µM)

**Q.** And the MIC ([5]; strain SAU.3021, read-out: MIC)?
**A.** 0.031 µg/mL (≈ 0.11 µM)

**Q.** What about the MIC ([5]; strain SAU.3025, read-out: MIC) of the same molecule?
**A.** 0.031 µg/mL (≈ 0.11 µM)

**Q.** And the MIC ([5]; strain SAU.419, read-out: MIC)?
**A.** 0.125 µg/mL (≈ 0.443 µM)

**Q.** What about the MIC ([5]; strain SAU.42, read-out: MIC) of the same molecule?
**A.** 1 µg/mL (≈ 3.54 µM)

**Q.** And the MIC ([5]; strain SAU.446, read-out: MIC)?
**A.** 0.25 µg/mL (≈ 0.886 µM)

**Q.** What about the MIC ([5]; strain SAU.447) of the same molecule?
**A.** 0.063 µg/mL (≈ 0.223 µM)

**Q.** What about the MIC ([5]; strain SAU.492, gyrA Ser84Leu, parC Ser80Tyr) of the same molecule?
**A.** 0.063 µg/mL (≈ 0.223 µM)

**Q.** And the MIC ([5]; strain SAU.493, gyrA Ser84Leu, parC Ser80Phe)?
**A.** 0.063 µg/mL (≈ 0.223 µM)

**Q.** And the MIC ([5]; strain SAU.494, gyrA Ser84Leu, parC Ser80Phe)?
**A.** 0.063 µg/mL (≈ 0.223 µM)

**Q.** What about the MIC ([5]; strain SAU.495, gyrA Ser84Leu, parC Ser80Phe) of the same molecule?
**A.** 0.063 µg/mL (≈ 0.223 µM)

**Q.** And the MIC ([5]; strain SAU.496, gyrA Ser84Leu, parC Ser80Phe)?
**A.** 0.063 µg/mL (≈ 0.223 µM)

**Q.** What about the MIC ([5]; strain SAU.555, read-out: MIC) of the same molecule?
**A.** 0.125 µg/mL (≈ 0.443 µM)

**Q.** And the MIC ([5]; strain SAU.708, gyrA Ser84Leu, parC Ser80Phe Glu84Lys)?
**A.** 0.063 µg/mL (≈ 0.223 µM)

**Q.** And the MIC ([5]; strain SAU.709, gyrA Ser84Leu, parC Ser80Tyr Glu84Gly)?
**A.** 0.063 µg/mL (≈ 0.223 µM)

**Q.** And the MIC ([5]; strain SAU.846, read-out: MIC)?
**A.** 0.031 µg/mL (≈ 0.11 µM)

**Q.** What about the “Sensitivity of MRSA clinical isolates” value ([5]; panel of MRSA clinical isolates (n=21)) of the same molecule?
**A.** sensitive

**Q.** What about the MIC ([6]; VRE harbouring the S83I mutation in GyrA) of the same molecule?
**A.** 0.125 to 1 µg/mL (≈ 0.443 to 3.54 µM)

**Q.** And the MIC ([6]; VRE with the S83R mutation in GyrA)?
**A.** ≥ 1 µg/mL

**Q.** What about the “Sensitivity of VRE clinical isolates” value ([6]; panel of VRE clinical isolates (n=22)) of the same molecule?
**A.** sensitive

**Q.** And the “inhibition of S83R DNA gyrase” value [7]?
**A.** buildup of OC DNA similar to that seen with S83L DNA gyrase only at a slightly higher concentration or longer time points

**Q.** And the “MIC against S. aureus 29213” value ([8]; ATCC 29213)?
**A.** modest activity and 2 μg ml^−1

**Q.** And the MIC ([8]; Staphylococcus aureus, ATCC29213, ATCC 29213, read-out: MIC against S. aureus 29213)?
**A.** > 1 µg/mL

**Q.** And the solubility at 1 h [9]?
**A.** 9 µM (≈ 2.54 µg/mL)

**Q.** What about the MIC [10] of the same molecule?
**A.** > 4 µg/mL

**Q.** And the “activity against wild-type (WT) or FQR P. aeruginosa” value [11]?
**A.** no detectable activity

**Q.** What about the MIC ([11]; PA1586 (CIP resistant clinical isolate)) of the same molecule?
**A.** > 4 µg/mL

**Q.** What about the MIC ([11]; Pseudomonas aeruginosa, P. aeruginosa PAO1, read-out: MIC) of the same molecule?
**A.** > 4 µg/mL

**Q.** And the MIC ([11]; Pseudomonas aeruginosa, read-out: MIC)?
**A.** > 4 µg/mL

**Q.** And the MIC ([12]; C21190, gyrA Ser83 Arg, parC Ser80Ile)?
**A.** > 1 µg/mL

**Q.** What about the MIC ([12]; C27282, gyrA Ser83 Arg, parC Ser80Arg) of the same molecule?
**A.** > 1 µg/mL

**Q.** And the MIC ([12]; S34, gyrA Ser83Ile, parC Ser80 Arg)?
**A.** 1 µg/mL (≈ 3.54 µM)

**Q.** What about the MIC ([12]; S226, gyrA Ser83Ile, parC Ser80Ile) of the same molecule?
**A.** 0.25 µg/mL (≈ 0.886 µM)

**Q.** What about the MIC ([12]; S235, gyrA Ser83Ile, parC Ser80Ile) of the same molecule?
**A.** 0.125 µg/mL (≈ 0.443 µM)

**Q.** And the MIC ([12]; S344, gyrA Ser83Ile, parC Ser80Ile)?
**A.** 0.25 µg/mL (≈ 0.886 µM)

**Q.** What about the MIC ([12]; S557, gyrA Ser83Ile, parC Ser80Ile) of the same molecule?
**A.** 0.25 µg/mL (≈ 0.886 µM)

**Q.** And the MIC ([12]; U63, gyrA Ser83 Arg, parC Ser80Ile)?
**A.** 1 µg/mL (≈ 3.54 µM)

**Q.** And the MIC ([12]; U275, gyrA Ser83Cys Glu87Gly, parC Ser80Ile)?
**A.** 1 µg/mL (≈ 3.54 µM)

**Q.** What about the MIC ([12]; U464, gyrA Ser83 Arg, parC Ser80Ile) of the same molecule?
**A.** 1 µg/mL (≈ 3.54 µM)

**Q.** What about the MIC ([12]; U503, gyrA Ser83 Arg, parC Ser80Ile) of the same molecule?
**A.** > 1 µg/mL

**Q.** What about the MIC ([12]; U563, gyrA Ser83 Arg, parC Ser80Ile) of the same molecule?
**A.** > 1 µg/mL

**Q.** What about the Cmax ([13]; C57/BL6 mice, 50 mg kg-1 oral gavage, serum, read-out: Cmax) of the same molecule?
**A.** < 60 ng/mL

**Q.** What about the Cmax ([13]; mice, 50 mg kg^−1 oral dose, serum, read-out: Cmax (peak serum concentration)) of the same molecule?
**A.** < 200 nM

**Q.** What about the “oral bioavailability / serum exposure” value ([13]; mice, 50 mg kg^−1 oral dose) of the same molecule?
**A.** very low serum exposure; also recorded: not absorbed to any appreciable degree

**Q.** What about the “Cmax (peak serum concentration)” value ([13]; mice, 50 mg kg^−1 oral dose, serum) of the same molecule?
**A.** < 60 ng/mL

**Q.** And the MIC [14]?
**A.** 0.25 µg/mL (≈ 0.886 µM)

**Q.** And the tolerability ([15]; increasing doses, highest dose evaluated 50 mg kg^−1 by oral gavage)?
**A.** well tolerated up to the highest dose evaluated

**Q.** And the maximal tolerated dose ([15]; oral gavage)?
**A.** > 50 mg/kg

**Q.** And the MIC ([16]; ATCC29213, high-level CIP-resistant strains, second step, S84L mutation in GyrA)?
**A.** 0.03 to 0.06 µg/mL (≈ 0.106 to 0.213 µM)

**Q.** What about the MIC ([16]; ATCC29213, low-level CIP-resistant strains, first step, WT gyrA, mutation in ParC (for example E84K or S80F)) of the same molecule?
**A.** > 1 µg/mL

**Q.** What about the MIC ([16]; ATCC29213, resistance cycle strain, WT gyrA, WT parC (Fig. 4a)) of the same molecule?
**A.** > 1 µg/mL
